Assay results published in patent publication US20260240797A1, “TREATMENT OF ULCERATIVE COLITIS COMPRISING VIDOFLUDIMUS OR A PHARMACEUTICALLY ACCEPTABLE SALT THEREOF” (IMMUNIC AG, priority 2022, published 2026).
Counter-ions that a name gives are not always drawn.

Columns and labels:
[1] = system: patients with CD; details: 12 weeks, cited from earlier work
[2] = system: patients with UC; details: 12 weeks, cited from earlier work
[3] = system: patients with inflammatory bowel disease (IBD); details: 35 mg oral once daily, 12 weeks; cited from earlier work
[4] = system: patients with active rheumatoid arthritis; details: 35 mg once-daily for 13 weeks; cited from earlier work
[5] = system: patients with moderate-to-severe ulcerative colitis; assay: CALDOSE-1 phase 2 trial (NCT03341962), induction phase efficacy; type: in vivo, human; details: for Odds Ratio Estimate to achieve clinical remission versus placebo: active treatment groups of 30/45 mg, multivariate logistical regression
[6] = system: patients with moderate-to-severe ulcerative colitis; assay: CALDOSE-1 phase 2 trial, maintenance phase efficacy (Week 50); type: in vivo, human; details: for Clinical Remission Rate at Week 50 (steroid-free): Modified Full Analysis Set MP; for Number of Patients with Clinical Remission at Week 50 (steroid-free): Modified Full Analysis Set MP (corticosteroids during induction)
[7] = system: patients with moderate-to-severe ulcerative colitis; assay: CALDOSE-1 phase 2 trial, safety and tolerability; type: in vivo, human; details: for Incidence of TEAEs of Special Interest: red blood cells urine positive, hematuria or retroperitoneal pain
[8] = system: patients with relapsing remitting MS (rrMS); details: cited from earlier work
[9] = in vivo; cited from earlier work
[10] = target: human DHODH (Homo sapiens, UniProt Q02127); details: cited from earlier work
Sequence of human DHODH (Q02127 whole entry): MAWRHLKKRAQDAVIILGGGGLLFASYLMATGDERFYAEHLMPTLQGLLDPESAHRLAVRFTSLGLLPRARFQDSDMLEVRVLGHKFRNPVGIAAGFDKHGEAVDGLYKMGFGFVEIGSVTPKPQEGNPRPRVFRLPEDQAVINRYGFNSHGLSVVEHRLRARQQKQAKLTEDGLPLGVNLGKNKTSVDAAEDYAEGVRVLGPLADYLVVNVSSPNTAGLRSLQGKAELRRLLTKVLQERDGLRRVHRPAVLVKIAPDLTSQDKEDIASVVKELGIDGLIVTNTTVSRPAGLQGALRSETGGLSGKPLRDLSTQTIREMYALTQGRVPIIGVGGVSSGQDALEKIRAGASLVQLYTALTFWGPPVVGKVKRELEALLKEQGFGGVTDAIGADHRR

[11] = system: T-lymphocyte proliferation; details: in vitro; cited from earlier work
[12] = system: secretion of IL-17 and IFNγ; details: in vitro; cited from earlier work

COc1cccc(-c2ccc(NC(=O)C3=C(C(=O)O)CCC3)c(F)c2)c1 [Vidofludimus, 2-((3-fluoro-3′-methoxy-[1,1′-biphenyl]-4-yl)carbamoyl)cyclopent-1-enecarboxylic acid]
number of partial responders ([1]; 35 mg oral once daily): 4 | partial responders ([1]; 35 mg oral once daily): 29% | patients in steroid-free remission (complete responders) ([1]; 35 mg oral once daily): 57% | number of patients in steroid-free remission (complete responders) ([1]; out of 14, 35 mg oral once daily): 8 | number of partial responders ([2]; 35 mg oral once daily): 5 | partial responders ([2]; 35 mg oral once daily): 42% | patients in steroid-free remission (complete responders) ([2]; 35 mg oral once daily): 50% | number of patients in steroid-free remission (complete responders) ([2]; out of 12, 35 mg oral once daily): 6 | tolerability / drug-related serious adverse events [3]: well tolerated and no drug-related serious adverse events were observed | diarrhoea, alopecia, neutropenia or liver enzyme elevations [4]: no notable increases | safety profile compared to placebo [4]: overall similar safety profile as compared to placebo

COc1cccc(-c2ccc(NC(=O)C3=C(C(=O)O)CCC3)c(F)c2)c1 [IMU-838, 1-cyclopentene-1-carboxylic acid, 2-(((3-fluoro-3′-methoxy(1,1′-biphenyl)-4-yl)amino)carbonyl)-, calcium salt (2:1)]
clinical remission at week 10 ([5]; 10 mg/day, overall intent-to-treat patient population): 14.9% | clinical remission at week 10 ([5]; 30 mg/day, overall intent-to-treat patient population): 10.6% | clinical remission at week 10 ([5]; 45 mg/day, overall intent-to-treat patient population): 13.6% | Odds Ratio Estimate to achieve clinical remission versus placebo ([5]; with concomitant steroids): 0.58 | Odds Ratio Estimate to achieve clinical remission versus placebo ([5]; without concomitant steroids): 3.53 | rate of clinical remission at week 10 ([5]; patients concomitantly taking corticosteroids during induction treatment): 11.5% | clinical remission (primary endpoint) at Week 10 ([5]; pooled 30 and 45 mg, Full Analysis Set, n=16 missing data): 13.8% | patients with clinical remission (primary endpoint) at Week 10 ([5]; pooled 30 and 45 mg, Full Analysis Set, of 116 evaluated): 16 | advantage in clinical remission over placebo ([5]; pooled treatment groups at week 10, non-steroid patient population): 11.4% | clinical remission at week 10 ([5]; pooled treatment groups, non-steroid patient population (no concurrent corticosteroids)): 14.7% | Clinical Remission Rate at Week 50 (steroid-free) ([6]; 10 mg): 38.5% | Number of Patients with Clinical Remission at Week 50 (steroid-free) ([6]; 10 mg, N10 = 22): 5 | Mean time to symptomatic UC relapse ([6]; 10 mg, N = 45): 231.7 days | Clinical Remission Rate at Week 50 ([6]; 10 mg, n = 26/35): 42.3% | Number of Patients with Clinical Remission at Week 50 ([6]; 10 mg, n = 26/35 evaluated/total): 11 | Endoscopic Healing Rate at Week 50 ([6]; 10 mg, n = 28/35): 53.6% | Number of Patients Meeting Endpoint (Endoscopic Healing at Week 50) ([6]; 10 mg, n = 28/35): 15 | delta (Δ) vs placebo in clinical remission at Week 50 ([6]; 30 mg, 95% CI 3.2%-59.3%): 33.8% | Clinical Remission Rate at Week 50 (steroid-free) ([6]; 30 mg): 66.7% | Number of Patients with Clinical Remission at Week 50 (steroid-free) ([6]; 30 mg, N30 = 22): 8 | Mean time to symptomatic UC relapse ([6]; 30 mg, N = 40): 221.9 days | Clinical Remission Rate at Week 50 ([6]; 30 mg, n = 26/29): 61.5% | Endoscopic Healing Rate at Week 50 ([6]; 30 mg, n = 26/29): 73.1% | Number of Patients Meeting Endpoint (Endoscopic Healing at Week 50) ([6]; 30 mg, n = 26/29): 19 | Number of Patients with Clinical Remission at Week 50 ([6]; 30 mg, n = 26/29 evaluated/total): 16 | odds ratio (30 mg IMU-838/Placebo) for clinical remission at Week 50 ([6]; 30 mg, two-sided Pearson's chi-square p=0.0358): 4.16 | safety and tolerability ([7]; induction phase, 10, 30, 45 mg/day): safe and well-tolerated | Incidence of Liver TEAEs ([7]; maintenance phase, 10 mg): 2.2% | Incidence of Renal TEAEs ([7]; maintenance phase, 10 mg): 2.2% | Incidence of Serious TEAEs ([7]; maintenance phase, 10 mg): 6.7% | Incidence of TEAEs ([7]; maintenance phase, 10 mg, N10 = 45): 35.6% | Incidence of TEAEs of Special Interest ([7]; maintenance phase, 10 mg): 0.0% | Incidence of Liver TEAEs ([7]; maintenance phase, 30 mg): 0.0 | Incidence of Renal TEAEs ([7]; maintenance phase, 30 mg): 5% | Incidence of Serious TEAEs ([7]; maintenance phase, 30 mg): 5% | Incidence of TEAEs ([7]; maintenance phase, 30 mg, N30 = 40): 40% | Incidence of TEAEs of Special Interest ([7]; maintenance phase, 30 mg): 5% | safety and tolerability ([7]; maintenance phase, 10 and 30 mg): safe and well tolerated | safety profile ([8]; 30 mg and 45 mg doses): favorable safety profile | suppression of MRI activity ([8]; 30 mg dose, 24-weeks of treatment): 70% | half-life [9]: approximately 30 h | potency against human DHODH [10]: submicromolar potency | T-lymphocyte proliferation [11]: inhibited | secretion of IL-17 and IFNγ [12]: inhibited
